Literature values as cited in patent US20090238867A1, “Nanoparticulate Anidulafungin Compositions and Methods for Making the Same” (priority 2007, published 2009).
Like-named read-outs stand apart in the source and are kept apart here. Numbered stars: 1 amine (or outer) side, 2 acyl side, 3 side chain; on linkers, the order of the positions; unused ones are H or OH. Bridge positions count the residues as written; N and C are the ends. Square brackets hold non-standard residues; d marks the D form. Peptide text beside a SMILES is read from it. * marks the point of attachment. ξ: configuration not given here. pTerphenylCO(4''-OnC5H11) = CCCCCOc1ccc(-c2ccc(-c3ccc(C(=O)*)cc3)cc2)cc1; Orn(4R-OH,5R-OH) = O=C([C@H](C[C@@H](O)[C@@H](O)N[*:3])N[*:1])[*:2]; hTyr(3S-OH,4S-OH) = N[C@H](C(=O)O)[C@H](O)[C@@H](O)c1ccc(O)cc1; Pro(3S-OH,4S-Me) = C[C@H]1CN[C@H](C(=O)O)[C@H]1O; Hyp = O=C(O)[C@@H]1C[C@@H](O)CN1; ξThr(3R) = C[C@@H](O)C(N)C(=O)O

Assays:
Candida albicans [1] = system: Candida albicans
[2] = system: fluconazole-resistant C. albicans; conditions: immunosuppressed rabbits
glucan synthase = conditions: enzyme present in fungal, not mammalian cells
Candida albicans [3] = conditions: parenteral; immunocompetent and immunosuppressed mice, disseminated infection
[4] = system: cytochrome P450 (CYP450) isoenzymes
Candida albicans [5] = conditions: parenteral; immunocompetent and immunosuppressed rabbits, disseminated infection
[6] = IV

CCCCCOc1ccc(-c2ccc(-c3ccc(C(=O)N[C@H]4C[C@@H](O)[C@@H](O)NC(=O)[C@@H]5[C@@H](O)[C@@H](C)CN5C(=O)[C@H]([C@@H](C)O)NC(=O)[C@H]([C@H](O)[C@@H](O)c5ccc(O)cc5)NC(=O)[C@@H]5C[C@@H](O)CN5C(=O)C([C@@H](C)O)NC4=O)cc3)cc2)cc1 (stereo partly drawn) [anidulafungin, 1-[(4R,5R)-4,5-Dihydroxy-N^2-[[4″-(pentyloxy)[1,1′:4′,1″-terphenyl]-4-yl]carbonyl]-L-ornithine]echinocandin B] ({pTerphenylCO(4''-OnC5H11)}-[Orn(4R-OH,5R-OH)][ξThr(3R)][Hyp][hTyr(3S-OH,4S-OH)]T[Pro(3S-OH,4S-Me)]; lactam 1-C)
in vitro activity (Candida albicans [1]): active
mycological burden [2]: reduces the mycological burden
bound to human plasma proteins (human plasma proteins): > 99%
clinical effectiveness (Candida; patients with candidemia and/or other forms of invasive candidiasis): effectiveness
clinical effectiveness (Candida; patients with esophageal candidiasis): effectiveness
inhibition of glucan synthase (glucan synthase): inhibits
solubility in ethanol (ethanol): slightly soluble
solubility in water (water): practically insoluble
efficacy as prolonged survival and reduction in mycological burden (Candida albicans [3]): effective
substrate, inducer or inhibitor of CYP450 isoenzymes [4]: not a clinically relevant substrate, inducer, or inhibitor
in vitro activity (C. tropicalis): active
in vitro activity (C. glabrata): active
efficacy as prolonged survival and reduction in mycological burden (Candida albicans [5]): effective
in vitro activity (C. parapsilosis): active
clearance [6]: about 1 L/h
distribution half-life [6]: 0.5 to 1 h
intersubject variability of systemic exposure (coefficient of variation) [6]: < 25%
systemic exposures, dose dependence [6]: dose proportional
terminal elimination half-life [6]: 40 to 50 h
volume of distribution [6]: 30 to 50 L
estimated plasma accumulation factor at steady state ([6]; after loading dose twice the daily maintenance dose): approximately 2
